In article PMC10718076, “1,2-Disubstituted bicyclo[2.1.1]hexanes as saturated bioisosteres of ortho-substituted benzene” (Chemical Science, 2023):
≈ marks a conversion by molar mass, not a printed value. Where two headings read alike, the source gives them in different places.

Key:
[1] = Kinetic solubility in phosphate-buffered saline, pH 7.4; type: physicochemical; conditions: 25 °C, kinetic from dmso stock, phosphate-buffered saline; for solubility kinetic at 2 h: aqueous buffer, pH 7.4, read-out: Sol.: experimental kinetic solubility; for solubility at 2 h: pH 7.4, aqueous buffer
Description: Analysis of Aqueous Solubility […]
compound (Ondansetron) were assessed for kinetic solubility in phosphate -buffered saline, pH 7.4.
Phosphate buffered saline, pH 7.4 (Sigma -Aldrich, USA; Cat #P3813) […]
MultiScreen HTS 96 Well Filter Plates (Millipore, Ireland; Cat # MSSLBPC10) […]
Matrix Multichannel Electronic Pipette 2-125 μL, 5-250 μL, 15-1250 μL (Thermo Scientific, USA; […]
Vacuum pump (Millipore, USA; Model # XX5500000)
The measurements were performed using SpectraMax Plus reader in UV -Vis mode. Acquisition and […]
The measurements were performed using SpectraMax Paradigm reader in UV-Vis mode.
Acquisition and analysis of the data were performed using SoftMax Pro v.5.4 (Molecular Devices) […]
Kinetic solubility assay was performed according to the Enamine’s aqueous solubility SOP. Briefly, using a 20 mM stock solution of the compound in 100% DMSO dilutions were prepared to a theoretical concentration of 400 μM in duplicates in phosphate-buffered saline pH 7.4 […]
compound dilutions in PBS were further allowed to equilibrate at 25 °C on a thermostatic shaker for two hours and then filtered through HTS filter plates using a vacuum manifold. The filtrates of test compounds were diluted 2-fold with acetonitrile with 2% DMSO before measuring.
In parallel, compound dilutions in 50% acetonitrile/PBS were prepared to theoretical concentrations […]
calibration curves. Ondansetron was used as reference compound to control proper assay performance. 200 μl of each sample was transferred to 96-well plate and measured in 230-550 nm range with 5 nm step. The effective range of this assay is approximately 2-400 μM and the […]
The concentrations of compounds in PBS filtrate are calculated using a dedicated Microsoft Excel calculation script. Proper absorbance wavelengths for calculations are selected for each compound manually based on absorbance maximums (absolute absorbance unit values for the minimum and maximum concentration points within the 0 – 3 OD range). Each final dataset is visually evaluated by the operator, and goodness of fit (R2) is calculated for each calibration curve. […]
samples were diluted 2-fold with acetonitrile containing internal standard and were analyzed using the HPLC system coupled with a tandem mass spectrometer. The effective range of this assay is […]

[2] = tested on: Aspergillus niger (strain VURV-F 822); test: Antifungal disk diffusion method; type: cell-based; conditions: for zone of inhibition at 4 µg/mL: Concentration 0.004 mg/mL, Boscalid, Bixafen marked st; for zone of inhibition at 4 µg/mL / zone of inhibition at 8 µg/mL / zone of inhibition at 16 µg/mL / zone of inhibition at 30 µg/mL / zone of inhibition at 60 µg/mL: 0 = absence of antifungal activity; for zone of inhibition at 4 µg/mL / zone of inhibition at 60 µg/mL: Fluxapyroxad; for zone of inhibition at 4 µg/mL / zone of inhibition at 8 µg/mL / zone of inhibition at 16 µg/mL / zone of inhibition at 30 µg/mL / zone of inhibition at 60 µg/mL / zone of inhibition at 120 µg/mL / zone of inhibition at 250 µg/mL / zone of inhibition at 500 µg/mL / zone of inhibition at 1000 µg/mL / zone of inhibition at 2000 µg/mL: read-out: Diameter of inhibition zone; for zone of inhibition at 8 µg/mL: Concentration 0.008 mg/mL; for zone of inhibition at 16 µg/mL: Concentration 0.016 mg/mL; for zone of inhibition at 30 µg/mL: Concentration 0.03 mg/mL; for zone of inhibition at 30 µg/mL / zone of inhibition at 60 µg/mL: (±)-29 marked st; for zone of inhibition at 60 µg/mL: Concentration 0.06 mg/mL, Bixafen; for zone of inhibition at 120 µg/mL: Concentration 0.12 mg/mL, (±)-28 marked st (static growth); for zone of inhibition at 250 µg/mL: Concentration 0.25 mg/mL, (±)-28 marked st (static growth, secondary growth of mycelium); for zone of inhibition at 500 µg/mL: Concentration 0.5 mg/mL; for zone of inhibition at 500 µg/mL / zone of inhibition at 1000 µg/mL / zone of inhibition at 2000 µg/mL: 10 μl per disk; for zone of inhibition at 1000 µg/mL: Concentration 1 mg/mL; for zone of inhibition at 2000 µg/mL: Concentration 2 mg/mL
Description: Antifungal activity of the synthetic compounds using disk diffusion methods The compounds were tested for plant pathogens Aspergillus niger (strain VURV-F 822), which was received from Culture collection of microorganisms of Crop Research Institute (Prague, Czech […]
The synthetic compounds' antifungal activity was evaluated using a disk diffusion assay for testing filamentous fungi (CLSI M51-A) and broth microdilution antifungal susceptibility testing (EUCAST E.DEF 7.3.1; CLSI M38-A2)
[CLSI M51-A. Method for Antifungal Disk Diffusion Susceptibility Testing of Nondermatophyte Filamentous Fungi; Approved Guideline.CLSI document M51-A. Wayne, PA:
Clinical and Laboratory Standards Institute; 2010. This method is standardized for Altenaria, Aspergillus, Bipolaris, Fusarium, order Mucorales, etc.]
[CLSI M38-A2. 2008. Reference method for broth dilution antifungal susceptibility testing of filamentous fungi, 2nd ed Approved standard M38 -A2 Clinical and Laboratory Standards Institute, […]
Antifungal disk diffusion method
The solutions of fungicides and their analogues were diluted in dimethyl sulfoxide (DMSO) to […]
mg/mL for each test component. Sterile paper disks (ASPECT, Ukraine) were soaked with 10 μl of a solution of the appropriate fungicide from the highest concentration to the lowest.
The fungal strains were cultured on Petri dishes with Saburo dextrose agar (Condalab, Spain) and incubated at 25 °C for 5 days. Sterile Dulbecco's phosphate -buffered saline (DPBS) with 0,1 % Tween 20 was used to cover colonies of fungus for obtained conidia l suspension. Suspension of conidia was adjusted to inoculums 2×10^5 conidia/mL by sterile DPBS.
For antifungal disk diffusion test we used square Petri dishes (FALCON A Corning Brand, USA). The conidial suspension (0.5 mL) was added to Petri dishes with Saburo dextrose agar. The suspension was evenly distributed over the surface of the nutrient medium with a glass spatula.
After the surface of the inoculated medium was dry, the disks with different concentrations of testing compounds were added to the Petri dishes. Each compound was tested in triplicate at different concentrations. Growth control was a disk with 10 μl of DMSO, which was used for test […]
Petri dishes incubated at 25 °C for 72 h. The test compounds at known concentrati on into contact with an inoculated medium then exert a growth-inhibiting effect then a clear zone (the zone of […]
inhibition) appears around the test product. The diameter of a clear zone around the well is […]
If the fungal strain is susceptible to the antifungal agent, then a zone of inhibition appears on the agar plate. If it is resistant to the test compound, then no zone is evident. The size of the zone of inhibition is usually related to the level of antifungal activity present in the compound – a larger […]
The growth rate of all strains for each concentration of test compounds was determined visually and compared with the growth of control.
Broth microdilution antifungal susceptibility testing
A 96-well CELLSTAR plate (sterile, flat-bottomed, polystyrene, transparent) was used to determine MIC by broth microdilution method. Also, dabble straight RPMI-1640 medium with 2% glucose (2x RPMI 2%G) was used for this method. Spore suspension for plate inoculation was prepared according to the method described above for the disc diffusion method.
The each well in the plate contained 49 μl of medium (2x RPMI 2%G), 50 μl of inoculum (prepared in DPBS) and 1 μl of the stock solution of the test substance. Positive control wells contained 50 μl medium and 50 μl inoculum, and sterile control wells contained 50 μl medium and […]
To determine the MIC by the microdilution method, a series of stock solutions of fungicides and their analogues in DMSO with the following concentrations were prepared: 3.2 mg/mL, 1.6 mg/mL, […]
1 μl of the stock solutions of the test substances were added to each well to obtain the following […]
Immediately after adding all the components to the plates, the optical density was measured at […]

physchem = conditions: pH 7.4, LogD, pH 7.4
[3] = Table S5, injection 1, octanol/PBS pH 7.4
[4] = Table S5, injection 2, octanol/PBS pH 7.4
[5] = Table S5, injection 3, octanol/PBS pH 7.4
[6] = Table S2, 2st batch, read-out: PBS solubility, pH 7.4, Incubation 1
[7] = Table S2, 2st batch, read-out: PBS solubility, pH 7.4, Incubation 2
[8] = Table S2, 2st batch, read-out: PBS solubility, pH 7.4, Mean

solubility kinetic at 2 h [1] [µM] | D [3] | D [4] | D [5] | logD at 1 h (physchem) | solubility at 2 h [1, 6] [µM] | solubility at 2 h [1, 7] [µM] | solubility at 2 h [1, 8] [µM] | SMILES | zone of inhibition at 4 µg/mL [2] [mm] | zone of inhibition at 8 µg/mL [2] [mm] | zone of inhibition at 16 µg/mL [2] [mm] | zone of inhibition at 30 µg/mL [2] [mm] | zone of inhibition at 60 µg/mL [2] [mm] | zone of inhibition at 120 µg/mL [2] [mm] | zone of inhibition at 250 µg/mL [2] [mm] | zone of inhibition at 500 µg/mL [2] [mm] | zone of inhibition at 1000 µg/mL [2] [mm] | zone of inhibition at 2000 µg/mL [2] [mm] | other results
30 (≈ 12.4 µg/mL) | 1.23E+04 | 1.53E+04 | 2.30E+04 | 4.09 |  |  |  | Cn1cc(C(=O)Nc2ccc(F)cc2-c2ccc(Cl)c(Cl)c2)c(C(F)F)n1 [Bixafen, bixafen] | 9 ± 2 | 15.8 ± 1.25 | 14.5 ± 1 | 20.2 ± 2.25 | 20.5 ± 1.75 | 27 ± 1 | 32 ± 2.5 | 32.8 ± 1.75 | 35.2 ± 1.4 | 38 ± 1 | solubility at 2 h ([1]; Table S4, 4nd batch, read-out: PBS solubility, pH 7.4, Incubation 1): 29 µM (≈ 12 µg/mL); solubility at 2 h ([1]; Table S4, 4nd batch, read-out: PBS solubility, pH 7.4, Incubation 2): 31 µM (≈ 12.8 µg/mL); solubility at 2 h ([1]; Table S4, 4nd batch, read-out: PBS solubility, pH 7.4, Mean): 30 µM (≈ 12.4 µg/mL); MIC ([2]; disk diffusion, small zones of inhibition with secondary mycelial growth, read-out: minimum inhibitory concentration): 4 mg/L (≈ 9.66 µM)
35 (≈ 12.2 µg/mL) | 3.84E+03 | 3.81E+03 | 3.49E+03 | 3.58 | 35 (≈ 12.2 µg/mL) | 34 (≈ 11.8 µg/mL) | 35 (≈ 12.2 µg/mL) | O=C(NC1CC2CC1(c1ccc(Cl)cc1)C2)c1cccnc1Cl (stereo not shown) [Compound 28] | 0 | 0 | 0 | 0 | 0 | 9 ± 0.5 | 7.5 ± 0.5 | 10.5 ± 1.5 | 13.8 ± 0.88 | 15.5 ± 0.5 | 
4 (≈ 1.6 µg/mL) | 1.26E+04 | 1.38E+04 | 1.92E+04 | 4.1 | 4 (≈ 1.6 µg/mL) | 4 (≈ 1.6 µg/mL) | 4 (≈ 1.6 µg/mL) | Cn1cc(C(=O)NC2CC3CC2(c2ccc(Cl)c(Cl)c2)C3)c(C(F)F)n1 (stereo not shown) [Compound 29] | 0 | 0 | 0 | 3.5 ± 0.5 | 6.5 ± 1 | 8.75 ± 1.25 | 12 ± 0.5 | 12.5 ± 1.5 | 16.2 ± 1.25 | 23.5 ± 2 | 
27 (≈ 10.4 µg/mL) | 4.08E+03 | 4.11E+03 | 4.44E+03 | 3.61 | 25 (≈ 9.63 µg/mL) | 28 (≈ 10.8 µg/mL) | 27 (≈ 10.4 µg/mL) | Cn1cc(C(=O)NC2CC3CC2(c2cc(F)c(F)c(F)c2)C3)c(C(F)F)n1 (stereo not shown) [Compound 30] | 0 | 0 | 0 | 0 | 0 | 10 ± 0.5 | 8.5 ± 1 | 13.8 ± 0.75 | 20.5 ± 1 | 24.2 ± 0.75 | 
